Measurements reported in article PMC8299157 (Antiviral Research, 2021).
Where a name gives a salt, the structure may show the parent alone. Read-outs that look alike come from different tables or passages of the source.

What was measured:
in vitro = conditions: human
human N7-MTase RNMT-RAM = human N7-MTase RNMT-RAM (Homo sapiens, UniProt O43148); assay: Py-FLINT N7-MTase inhibition assay; format: biochemical; conditions: for IC50 Py-FLINT (RNMT-RAM): 2 μM Py-FLINT probe, 20 μM SAM, 20 nM RNMT-RAM
Sequence of human N7-MTase RNMT-RAM (O43148 whole entry): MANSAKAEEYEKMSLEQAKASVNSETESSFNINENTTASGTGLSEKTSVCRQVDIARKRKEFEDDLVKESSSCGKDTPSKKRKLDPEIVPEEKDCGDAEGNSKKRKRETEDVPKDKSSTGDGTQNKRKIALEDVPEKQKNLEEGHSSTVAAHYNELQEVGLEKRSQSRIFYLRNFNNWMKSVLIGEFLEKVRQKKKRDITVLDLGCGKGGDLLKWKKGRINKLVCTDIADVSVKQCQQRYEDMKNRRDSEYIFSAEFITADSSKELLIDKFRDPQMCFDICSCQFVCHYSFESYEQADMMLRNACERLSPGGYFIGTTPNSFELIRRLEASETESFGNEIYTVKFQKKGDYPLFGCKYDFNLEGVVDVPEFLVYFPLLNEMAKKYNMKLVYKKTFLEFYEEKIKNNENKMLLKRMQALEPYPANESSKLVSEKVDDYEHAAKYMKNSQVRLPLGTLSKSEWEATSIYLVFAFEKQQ
Sequence of human N7-MTase RNMT-RAM (Q9BTL3 whole entry partner): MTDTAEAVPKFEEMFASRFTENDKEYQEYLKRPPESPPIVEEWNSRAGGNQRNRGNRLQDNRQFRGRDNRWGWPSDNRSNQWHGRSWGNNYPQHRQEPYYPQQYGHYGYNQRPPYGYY

nsp14 = nsp14 (Severe acute respiratory syndrome coronavirus 2, UniProt P0DTD1); format: binding, SARS-CoV-2; conditions: 100 μM inhibitor; for Inhibitor type (targeted binding site): from both FA competition assays
SARS-CoV-2 = format: cell-based; conditions: for EC50: read-out: EC50 Antiviral assay
nsp14 N7-MTase = nsp14 N7-MTase (Severe acute respiratory syndrome coronavirus 2, UniProt P0DTD1); assay: RP HPLC inhibition study of Gp3A N7-methylation; format: biochemical, SARS-CoV-2
[1] = molecular target: SARS-CoV-2 nsp14 N7-MTase (Severe acute respiratory syndrome coronavirus 2, UniProt P0DTD1); assay: Py-FLINT N7-MTase inhibition assay; format: biochemical

Compound `Nc1ncnc2c1ncn2[C@@H]1O[C@H](C[C@@H](N)CC[C@H](N)C(=O)O)[C@@H](O)[C@H]1O` [Sinefungin] has a CC50 (in vitro) of over 100 µM and an IC50 (human N7-MTase RNMT-RAM) of 0.22 ± 0.02 µM.

In the case of `Oc1c(Cl)cc(Cl)c(Cl)c1Cc1c(O)c(Cl)cc(Cl)c1Cl` [FI11, Hexachlorophene], the “Inhibitor type (targeted binding site)” value (nsp14) is reported as “bound by nsp14 within the nucleotide binding pocket”, the “CC50/EC50 Selectivity index” value (SARS-CoV-2) is reported as “not active” and the IC50 (human N7-MTase RNMT-RAM) is reported as 8 ± 3.2 µM.

Compound `O=c1c2ccccc2[se]n1-c1ccccc1` [FI6, Ebselen] has an IC50 (human N7-MTase RNMT-RAM) of 23.8 ± 1.3 µM.

Work on `Nc1c(S(=O)(=O)O)cc(Nc2ccc(Nc3nc(Cl)nc(Nc4cccc(S(=O)(=O)O)c4)n3)c(S(=O)(=O)O)c2)c2c1C(=O)c1ccccc1C2=O` [LI4, Reactive Blue 2] yielded an EC50 (SARS-CoV-2) of 16.3 ± 0.3 µM, an EC50 (SARS-CoV-2; listed as Reactive Blue 2) of under 50 µM and a CC50 (in vitro) of 52.6 ± 10.2 µM. It also gave an IC50 (human N7-MTase RNMT-RAM) of 1.5 ± 0.28 µM.

For `CC(=O)OC[C@H]1O[C@@H]([S-])[C@H](OC(C)=O)[C@@H](OC(C)=O)[C@@H]1OC(C)=O.CCP(CC)CC.[Au+]` [FI9, Auranofin], the “Inhibitor type (targeted binding site)” value (nsp14) was “bound by nsp14 within the nucleotide binding pocket”, the EC50 (SARS-CoV-2) was over 100 µM and the “IC50 Py-FLINT (RNMT-RAM)” value (human N7-MTase RNMT-RAM) was “no human N7-MTase inhibition”.

For `COC(=O)c1c(NC(=O)c2cc3ccccc3o2)sc(C)c1C` [OI1, Methyl 2-[(1-benzofuran-2-ylcarbonyl)amino]-4,5-dimethylthiophene-3-carboxylate], the “Inhibitor type (targeted binding site)” value (nsp14) was “bound by nsp14 within the nucleotide binding pocket”, the “CC50/EC50 Selectivity index” value (SARS-CoV-2; Huh 7 cells) was “not active” and the CC50 (in vitro) was over 100 µM. For the same compound, the IC50 (human N7-MTase RNMT-RAM) was over 100 µM and the “IC50 Py-FLINT (RNMT-RAM)” value (human N7-MTase RNMT-RAM) was “no human N7-MTase inhibition”.

In the case of `N.N.N.N.N.N.N.N.N.N.N.N.N.N.[Cl-].[Cl-].[Cl-].[Cl-].[Cl-].[Cl-].[O-2].[O-2].[Ru+3].[Ru+3].[Ru+4]` [LI6, Ruthenium red], the “inhibition of m7Gp3A formation (RP HPLC)” value (nsp14 N7-MTase) is reported as “lower potency”.

For `Clc1cccc(/C=C/c2nn3c(-c4ccco4)nnc3s2)c1` [OI2, (E)-6-(3-Chlorostyryl)-3-(furan-2-yl)-[1,2,4]triazolo[3,4-b][1,3,4]thiadiazole], the “Inhibitor type (targeted binding site)” value (nsp14) was “bound by nsp14 within the nucleotide binding pocket”, the “CC50/EC50 Selectivity index” value (SARS-CoV-2; Huh 7 cells) was “not active” and the CC50 (in vitro) was 71.3 ± 5.9 µM. For the same compound, the IC50 (human N7-MTase RNMT-RAM) was over 100 µM and the “IC50 Py-FLINT (RNMT-RAM)” value (human N7-MTase RNMT-RAM) was “no human N7-MTase inhibition”.

In the case of `O=c1cc(-c2ccccc2)oc2cc(O)c(O)c(O)c12` [baicalein], the “inhibition of reaction progress in library screening” value ([1]; 50 μM library compound) is reported as “did not observe such activity”.

In the case of `NCCOc1cc(C(=O)Nc2cc(OCCN)c3ccccc3n2)nc(C(=O)Nc2cc(OCCN)c3ccccc3n2)c1` [LI3, Pyridostatin xCF3COO^-], the “FA values in both binding assays and control sample” value (nsp14) is reported as “high FA values in both assays as well as in the control sample”, the “inhibition of m7Gp3A formation (RP HPLC)” value (nsp14 N7-MTase) is reported as “lower potency” and the “CC50/EC50 Selectivity index” value (SARS-CoV-2; Huh 7 cells) is reported as 16.6 ± 6.1. For the same compound, the EC50 (SARS-CoV-2) was 3.58 ± 0.16 µM, the EC50 (SARS-CoV-2; listed as Pyridostatin) was under 50 µM and the CC50 (in vitro) was 59.3 ± 21.6 µM. The IC50 (human N7-MTase RNMT-RAM) was 3.1 µM and the “p (Hill slope)” value ([1]; compounds selected from LOPAC1280 library (Table S3)) was 18.1.

`O=c1c(O)c(-c2cc(O)c(O)c(O)c2)oc2cc(O)cc(O)c12` [LI8, Myricetin] showed a CC50 (in vitro) of 41.6 ± 7.1 µM and an IC50 (human N7-MTase RNMT-RAM) of 3.57 ± 0.36 µM.

In the case of `Cc1cc(-c2ccc(/N=N/c3ccc4c(S(=O)(=O)O)cc(S(=O)(=O)O)c(N)c4c3O)c(C)c2)ccc1/N=N/c1ccc2c(S(=O)(=O)O)cc(S(=O)(=O)O)c(N)c2c1O` [FI7, Evans Blue], the “CC50/EC50 Selectivity index” value (SARS-CoV-2; Huh 7 cells) is reported as 1.15 ± 0.04, the EC50 (SARS-CoV-2) is reported as 31 ± 0.9 µM and the CC50 (in vitro) is reported as 35.6 ± 1 µM. It also gave an IC50 (human N7-MTase RNMT-RAM) of 0.33 ± 0.05 µM.

In the case of `O=C1c2c(O)ccc(O)c2C(=O)c2c(NCCNCCO)ccc(NCCNCCO)c21` [LI5, Mitoxantrone 2HCl], the “FA values in both binding assays and control sample” value (nsp14) is reported as “high FA values in both assays as well as in the control sample”, the “inhibition of m7Gp3A formation (RP HPLC)” value (nsp14 N7-MTase) is reported as “lower potency” and the “CC50/EC50 Selectivity index” value (SARS-CoV-2; Huh 7 cells) is reported as “not active”. For the same compound, the CC50 (in vitro) was under 0.04 µM and the IC50 (human N7-MTase RNMT-RAM) was 3.92 ± 0.21 µM.

With `CC(C)N(CCC(=O)c1ccc2ccccc2c1)Cc1ccccc1` [LI7, ZM 39923 HCl] the “Inhibitor type (targeted binding site)” value (nsp14) was “bound by nsp14 within the nucleotide binding pocket”, the “CC50/EC50 Selectivity index” value (SARS-CoV-2; Huh 7 cells) was “not active” and the CC50 (in vitro) was 12.2 ± 0.6 µM. It also gave an IC50 (human N7-MTase RNMT-RAM) of 15.9 ± 3.3 µM.
